According to the supplement of paper PMC13380429:

Tests used:
Conditions in all cases: 72 h
[1] = test system: Caco-2; assay: cell viability relative to DMSO; higher = less toxic
[2] = test system: Calu-3; assay: as above
[3] = test system: HepG2; assay: as above
[4] = test system: U2OS; assay: as above
[5] = test system: Vero E6; assay: as above
[6] = test system: Caco-2; assay: relative viability EC50 (midpoint between 100% and the lowest measured viability); higher = less toxic
[7] = test system: Calu-3; assay: as above
[8] = test system: HepG2; assay: as above
[9] = test system: U2OS; assay: as above
[10] = test system: Vero E6; assay: as above
[11] = test system: Caco-2; assay: drug sensitivity score (DSS) for viability; higher = more toxic; extreme values may be limits of the assay
[12] = test system: Calu-3; assay: as above
[13] = test system: HepG2; assay: as above
[14] = test system: U2OS; assay: as above
[15] = test system: Vero E6; assay: as above

SMILES: CC1(C)N=C(N)N=C(N)N1OCCCOc1cc(Cl)c(Cl)cc1Cl
- cell viability ([1]; 1 nM): 99.7%
- cell viability ([1]; 10 nM): 91.5%
- cell viability ([1]; 100 nM): 95.5%
- cell viability ([1]; 1000 nM): 102%
- cell viability ([1]; 10000 nM): 99.6%
- cell viability ([2]; 1 nM): 100%
- cell viability ([2]; 10 nM): 96.1%
- cell viability ([2]; 100 nM): 93.8%
- cell viability ([2]; 1000 nM): 93.7%
- cell viability ([2]; 10000 nM): 100%
- cell viability ([3]; 1 nM): 104%
- cell viability ([3]; 10 nM): 93.8%
- cell viability ([3]; 100 nM): 93.9%
- cell viability ([3]; 1000 nM): 99.5%
- cell viability ([3]; 10000 nM): 98.7%
- cell viability ([4]; 1 nM): 99.3%
- cell viability ([4]; 10 nM): 93.9%
- cell viability ([4]; 100 nM): 99.1%
- cell viability ([4]; 1000 nM): 95.7%
- cell viability ([4]; 10000 nM): 95%
- cell viability ([5]; 1 nM): 94.7%
- cell viability ([5]; 10 nM): 96.8%
- cell viability ([5]; 100 nM): 95.3%
- cell viability ([5]; 1000 nM): 98%
- cell viability ([5]; 10000 nM): 108%
- relative viability EC50 [6]: > 10 µM
- relative viability EC50 [7]: > 10 µM
- relative viability EC50 [8]: > 10 µM
- relative viability EC50 [9]: > 10 µM
- relative viability EC50 [10]: > 10 µM
- drug sensitivity score [11]: 0
- drug sensitivity score [12]: 0
- drug sensitivity score [13]: 0
- drug sensitivity score [14]: 0
- drug sensitivity score [15]: 0

SMILES: O=C(/C=C/c1ccc2ccc(C(F)(F)F)cc2n1)c1ccncc1 [PFK-158]
- cell viability ([1]; 1 nM): 95.9%
- cell viability ([1]; 10 nM): 92.8%
- cell viability ([1]; 100 nM): 102%
- cell viability ([1]; 1000 nM): 92.3%
- cell viability ([1]; 10000 nM): 88.2%
- cell viability ([2]; 1 nM): 92.1%
- cell viability ([2]; 10 nM): 96.3%
- cell viability ([2]; 100 nM): 90.5%
- cell viability ([2]; 1000 nM): 104%
- cell viability ([2]; 10000 nM): 89.9%
- cell viability ([3]; 1 nM): 97.1%
- cell viability ([3]; 10 nM): 84.6%
- cell viability ([3]; 100 nM): 96.3%
- cell viability ([3]; 1000 nM): 102%
- cell viability ([3]; 10000 nM): 44.9%
- cell viability ([4]; 1 nM): 94.4%
- cell viability ([4]; 10 nM): 100%
- cell viability ([4]; 100 nM): 93.9%
- cell viability ([4]; 1000 nM): 101%
- cell viability ([4]; 10000 nM): 0%
- cell viability ([5]; 1 nM): 105%
- cell viability ([5]; 10 nM): 86.7%
- cell viability ([5]; 100 nM): 110%
- cell viability ([5]; 1000 nM): 92.1%
- cell viability ([5]; 10000 nM): 87.3%
- relative viability EC50 [6]: > 10 µM
- relative viability EC50 [7]: > 10 µM
- relative viability EC50 [8]: 3.37 µM
- relative viability EC50 [9]: 3.22 µM
- relative viability EC50 [10]: > 10 µM
- drug sensitivity score [11]: 0
- drug sensitivity score [12]: 0
- drug sensitivity score [13]: 2.8
- drug sensitivity score [14]: 5.5
- drug sensitivity score [15]: 0.5

SMILES: CN1CCN(CCCN2c3ccccc3Sc3ccc(S(=O)(=O)N(C)C)cc32)CC1 [thioproperazine]
- cell viability ([1]; 1 nM): 95.7%
- cell viability ([1]; 10 nM): 93.3%
- cell viability ([1]; 100 nM): 89.6%
- cell viability ([1]; 1000 nM): 113%
- cell viability ([1]; 10000 nM): 79%
- cell viability ([2]; 1 nM): 98%
- cell viability ([2]; 10 nM): 93.5%
- cell viability ([2]; 100 nM): 105%
- cell viability ([2]; 1000 nM): 103%
- cell viability ([2]; 10000 nM): 90.9%
- cell viability ([3]; 1 nM): 108%
- cell viability ([3]; 10 nM): 103%
- cell viability ([3]; 100 nM): 105%
- cell viability ([3]; 1000 nM): 99.6%
- cell viability ([3]; 10000 nM): 92.5%
- cell viability ([4]; 1 nM): 107%
- cell viability ([4]; 10 nM): 97.1%
- cell viability ([4]; 100 nM): 104%
- cell viability ([4]; 1000 nM): 99.7%
- cell viability ([4]; 10000 nM): 97.9%
- cell viability ([5]; 1 nM): 99.3%
- cell viability ([5]; 10 nM): 95.9%
- cell viability ([5]; 100 nM): 94.9%
- cell viability ([5]; 1000 nM): 85.2%
- cell viability ([5]; 10000 nM): 90.6%
- relative viability EC50 [6]: > 10 µM
- relative viability EC50 [7]: > 10 µM
- relative viability EC50 [8]: > 10 µM
- relative viability EC50 [9]: > 10 µM
- relative viability EC50 [10]: > 10 µM
- drug sensitivity score [11]: 0.4
- drug sensitivity score [12]: 0
- drug sensitivity score [13]: 0
- drug sensitivity score [14]: 0
- drug sensitivity score [15]: 0.6

SMILES: O=C1C=CC[C@@H]2[C@H]3CCCN4CCC[C@@H](CN12)[C@@H]34 [sophocarpine]
- cell viability ([1]; 1 nM): 93.8%
- cell viability ([1]; 10 nM): 95.9%
- cell viability ([1]; 100 nM): 110%
- cell viability ([1]; 1000 nM): 97%
- cell viability ([1]; 10000 nM): 90.3%
- cell viability ([2]; 1 nM): 98.8%
- cell viability ([2]; 10 nM): 103%
- cell viability ([2]; 100 nM): 103%
- cell viability ([2]; 1000 nM): 98%
- cell viability ([2]; 10000 nM): 102%
- cell viability ([3]; 1 nM): 92.1%
- cell viability ([3]; 10 nM): 99.1%
- cell viability ([3]; 100 nM): 80.5%
- cell viability ([3]; 1000 nM): 91.2%
- cell viability ([3]; 10000 nM): 89.4%
- cell viability ([4]; 1 nM): 97.3%
- cell viability ([4]; 10 nM): 96.4%
- cell viability ([4]; 100 nM): 100%
- cell viability ([4]; 1000 nM): 98.5%
- cell viability ([4]; 10000 nM): 106%
- cell viability ([5]; 1 nM): 97.8%
- cell viability ([5]; 10 nM): 113%
- cell viability ([5]; 100 nM): 106%
- cell viability ([5]; 1000 nM): 109%
- cell viability ([5]; 10000 nM): 100%
- relative viability EC50 [6]: > 10 µM
- relative viability EC50 [7]: > 10 µM
- relative viability EC50 [8]: > 10 µM
- relative viability EC50 [9]: > 10 µM
- relative viability EC50 [10]: > 10 µM
- drug sensitivity score [11]: 0
- drug sensitivity score [12]: 0
- drug sensitivity score [13]: 0
- drug sensitivity score [14]: 0
- drug sensitivity score [15]: 0

SMILES: C[C@]12Cc3c[nH]nc3C[C@@H]1CC[C@@H]1[C@@H]2CC[C@@]2(C)[C@H]1CC[C@]2(C)O [stanozolol]
- cell viability ([1]; 1 nM): 101%
- cell viability ([1]; 10 nM): 95%
- cell viability ([1]; 100 nM): 104%
- cell viability ([1]; 1000 nM): 107%
- cell viability ([1]; 10000 nM): 91.4%
- cell viability ([2]; 1 nM): 95%
- cell viability ([2]; 10 nM): 100%
- cell viability ([2]; 100 nM): 103%
- cell viability ([2]; 1000 nM): 94.1%
- cell viability ([2]; 10000 nM): 107%
- cell viability ([3]; 1 nM): 103%
- cell viability ([3]; 10 nM): 98.5%
- cell viability ([3]; 100 nM): 101%
- cell viability ([3]; 1000 nM): 104%
- cell viability ([3]; 10000 nM): 94.1%
- cell viability ([4]; 1 nM): 98.5%
- cell viability ([4]; 10 nM): 101%
- cell viability ([4]; 100 nM): 96.9%
- cell viability ([4]; 1000 nM): 96.3%
- cell viability ([4]; 10000 nM): 97.3%
- cell viability ([5]; 1 nM): 101%
- cell viability ([5]; 10 nM): 109%
- cell viability ([5]; 100 nM): 102%
- cell viability ([5]; 1000 nM): 106%
- cell viability ([5]; 10000 nM): 95%
- relative viability EC50 [6]: > 10 µM
- relative viability EC50 [7]: > 10 µM
- relative viability EC50 [8]: > 10 µM
- relative viability EC50 [9]: > 10 µM
- relative viability EC50 [10]: > 10 µM
- drug sensitivity score [11]: 0
- drug sensitivity score [12]: 0
- drug sensitivity score [13]: 0
- drug sensitivity score [14]: 0
- drug sensitivity score [15]: 0

SMILES: O=[N+]([O-])c1ccc2c(c1)S(=O)(=O)C=C2 [stattic]
- cell viability ([1]; 1 nM): 97.6%
- cell viability ([1]; 10 nM): 90.3%
- cell viability ([1]; 100 nM): 99%
- cell viability ([1]; 1000 nM): 91.2%
- cell viability ([1]; 10000 nM): 16.1%
- cell viability ([2]; 1 nM): 107%
- cell viability ([2]; 10 nM): 95.2%
- cell viability ([2]; 100 nM): 97.7%
- cell viability ([2]; 1000 nM): 117%
- cell viability ([2]; 10000 nM): 27.3%
- cell viability ([3]; 1 nM): 96.3%
- cell viability ([3]; 10 nM): 95.7%
- cell viability ([3]; 100 nM): 107%
- cell viability ([3]; 1000 nM): 102%
- cell viability ([3]; 10000 nM): -0.2%
- cell viability ([4]; 1 nM): 99.1%
- cell viability ([4]; 10 nM): 95.6%
- cell viability ([4]; 100 nM): 98.6%
- cell viability ([4]; 1000 nM): 94%
- cell viability ([4]; 10000 nM): 0.6%
- cell viability ([5]; 1 nM): 95.8%
- cell viability ([5]; 10 nM): 99%
- cell viability ([5]; 100 nM): 99.1%
- cell viability ([5]; 1000 nM): 95.3%
- cell viability ([5]; 10000 nM): 2.5%
- relative viability EC50 [6]: 2.3 µM
- relative viability EC50 [7]: 3.99 µM
- relative viability EC50 [8]: 3.29 µM
- relative viability EC50 [9]: 2.69 µM
- relative viability EC50 [10]: 2.79 µM
- drug sensitivity score [11]: 6.1
- drug sensitivity score [12]: 3.2
- drug sensitivity score [13]: 5.4
- drug sensitivity score [14]: 6.4
- drug sensitivity score [15]: 6.1

SMILES: CC(C)(C)NCC(O)c1cc(O)cc(O)c1 (stereo not given) [TERBUTALINE HEMISULFATE]
- cell viability ([1]; 1 nM): 99%
- cell viability ([1]; 10 nM): 104%
- cell viability ([1]; 100 nM): 88.7%
- cell viability ([1]; 1000 nM): 91.8%
- cell viability ([1]; 10000 nM): 98.2%
- cell viability ([2]; 1 nM): 104%
- cell viability ([2]; 10 nM): 106%
- cell viability ([2]; 100 nM): 99.7%
- cell viability ([2]; 1000 nM): 95%
- cell viability ([2]; 10000 nM): 98.3%
- cell viability ([3]; 1 nM): 109%
- cell viability ([3]; 10 nM): 102%
- cell viability ([3]; 100 nM): 106%
- cell viability ([3]; 1000 nM): 94.5%
- cell viability ([3]; 10000 nM): 92.3%
- cell viability ([4]; 1 nM): 102%
- cell viability ([4]; 10 nM): 98.6%
- cell viability ([4]; 100 nM): 105%
- cell viability ([4]; 1000 nM): 100%
- cell viability ([4]; 10000 nM): 106%
- cell viability ([5]; 1 nM): 105%
- cell viability ([5]; 10 nM): 101%
- cell viability ([5]; 100 nM): 101%
- cell viability ([5]; 1000 nM): 105%
- cell viability ([5]; 10000 nM): 98.9%
- relative viability EC50 [6]: > 10 µM
- relative viability EC50 [7]: > 10 µM
- relative viability EC50 [8]: > 10 µM
- relative viability EC50 [9]: > 10 µM
- relative viability EC50 [10]: > 10 µM
- drug sensitivity score [11]: 0.6
- drug sensitivity score [12]: 0
- drug sensitivity score [13]: 0
- drug sensitivity score [14]: 0
- drug sensitivity score [15]: 0
